Experimental data taken from patent publication US20090298068A1, “METHOD AND TEST KIT FOR THE DIAGNOSIS AND/OR MAKING PREDICTIONS ABOUT AND/OR FOR THE ASSESSMENT OF THE EFFICACY OF THERAPEUTIC AGENTS FOR THE TREATMENT OF OVARIAN CANCER AND METHOD OF PLANNING A REGIMEN FOR THE TREATMENT OF OVARIAN CANCER” (priority 2006, published 2009).

Tested on: TUSC3 expression in the hypermethylated MZ6 cell line
Test: Restoration of TUSC3 expression by DNA demethylation in ovarian cancer cell lines (real time RT-PCR)
Type: cell-based, human
Settings: 72-hour treatment
Experimental: In addition, 32 ovarian cancer cell lines were studied, which were started from ovarian cancer tissue samples of 28 patients and cultivated as described (Mobus V1 Gerharz C D, Press U, et al, Morphological, immunohistochemical and biochemical characterization of 6 newly established human ovarian carcinoma cell lines. Int J Cancer. 1992; 52:76-84).
For bisulfite treatment, 1 μg genomic DNA was digested with the restriction enzymes Hind III and Xba I, precipitated, dissolved and denatured for 20 minutes in 0.35 M NaOH. Then, the DNA was treated in 8 cycles (2 hrs. 75° C. and 1 min. 95° C.) with 1.75 M sodium bisulfite, 5.23 M urea and 0.52 mM hydroquinone in a PCR cycler. Using the QIAEX II Gel Extraction Kit (Qiagen, Hilden, Germany), the DNA was cleaned and the reaction was ended with 0.32 M NaOH (20 min. 37° C.). Finally, the DNA was precipitated with 1 μl glycogen with NH4 acetate EtOH as the carrier, rinsed with 70% EtOH and dissolved in 40 μl H2O. […] The PCR products were analyzed on 3% agarose gel, stained with ethidium bromide. […] DNA demethylation of the cancer cell lines was carried out by a 72-hour treatment with 1 and 2.5 μM 5-aza-deoxycytidine (Sigma-Aldrich, St. Louis, Mo., USA) in cell culture medium, and the relative TUSC3 expression was evaluated by real time RT-PCR as described below. […]

Nc1ncn([C@H]2C[C@H](O)[C@@H](CO)O2)c(=O)n1 [5-aza-deoxycytidine]
TUSC3 expression, times greater than sham-treated samples (relative to B-2-microglobulin) (2.5 μM, MZ6 cell line, sham-treated below detection limit, mean of three experiments): at least 9.5 times | Restoration of TUSC3 expression (1 and 2.5 μM, hypermethylated MZ6 cell line, concentration-dependent): restoration of TUSC3 expression
